From ChEMBL document CHEMBL1909046, “DrugMatrix in vitro pharmacology data”
*1 amine or outer side, *2 acyl side, *3 side chain or, on linkers, in order; H or OH if unused. Where a SMILES comes first, the peptide text is derived from it. Bridges are numbered along the chain shown (N, C = ends). Roman numbers before positions name the chains, in order. [ ]: non-standard residue; d: D form. Actinocin(1to9) = Cc1c2oc3c(C)ccc(C(=O)[*:2])c3nc-2c(C(=O)[*:1])c(N)c1=O; NMeV = CN[C@H](C(=O)O)C(C)C; Sar = CNCC(=O)O

Key:
[1] = target: T1, Adenosine receptor A3 (Homo sapiens, UniProt P0DMS8); type: cell membranes, CHO-K1, Membrane; settings: for Ki: read-out: Ki;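 on all read-outs here: radioligand binding assay with AB-MECA serving as the labeled ligand; in other assays of this panel Not Active means under 50% inhibition at 10 µM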
T1 sequence (P0DMS8 whole entry): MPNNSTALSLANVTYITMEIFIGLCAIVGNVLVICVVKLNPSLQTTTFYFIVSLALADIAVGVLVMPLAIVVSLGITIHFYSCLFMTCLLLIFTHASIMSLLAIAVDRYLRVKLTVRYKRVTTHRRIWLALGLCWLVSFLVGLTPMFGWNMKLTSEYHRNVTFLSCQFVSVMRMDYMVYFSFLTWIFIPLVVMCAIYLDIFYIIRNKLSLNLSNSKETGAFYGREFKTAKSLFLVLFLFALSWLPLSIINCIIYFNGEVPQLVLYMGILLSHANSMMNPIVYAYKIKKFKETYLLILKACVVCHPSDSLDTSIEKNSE

[2] = target: Glycine receptor (Rattus norvegicus, UniProt P22771+P24524+P07727+P20781); type: cell membranes, Wistar, Spinal cord, Membrane; further: in other assays of this panel Not Active means under 50% inhibition at 10 µM
[3] = target: T2, Alpha-1A adrenergic receptor (Rattus norvegicus, UniProt P43140); assay: DRUGMATRIX: Alpha-1A adrenergic receptor radioligand binding (ligand: prazosin); type: cell membranes, Wistar, Submaxillary gland, Membrane; settings: Not Active = under 50% inhibition at 10 µM; for Ki: read-out: Ki
T2 sequence (P43140 whole entry): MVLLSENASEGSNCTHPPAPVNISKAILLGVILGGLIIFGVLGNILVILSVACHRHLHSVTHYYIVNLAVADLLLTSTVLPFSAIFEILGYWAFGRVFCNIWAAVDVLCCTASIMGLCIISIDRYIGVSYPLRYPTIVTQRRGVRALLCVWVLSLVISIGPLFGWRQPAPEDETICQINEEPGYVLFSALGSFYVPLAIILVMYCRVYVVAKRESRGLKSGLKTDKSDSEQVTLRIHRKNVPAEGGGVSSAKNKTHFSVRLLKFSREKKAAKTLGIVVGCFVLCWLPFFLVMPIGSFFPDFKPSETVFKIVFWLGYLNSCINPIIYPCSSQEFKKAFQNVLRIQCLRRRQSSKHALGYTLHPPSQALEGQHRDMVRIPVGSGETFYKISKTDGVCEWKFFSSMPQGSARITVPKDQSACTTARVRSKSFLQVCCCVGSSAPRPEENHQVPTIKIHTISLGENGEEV

[4] = DRUGMATRIX: GABAA, Chloride Channel, TBOB radioligand binding (ligand: [3H] TBOB); type: cell membranes, Rattus norvegicus, Wistar, Cerebral cortex, Membrane; settings: Not Active = under 50% inhibition at 10 µM
[5] = target: Tyrosine-protein kinase Lck (Homo sapiens, UniProt P06239); assay: DRUGMATRIX: Protein Tyrosine Kinase, LCK enzyme inhibition (substrate: Poly(Glu:Tyr)); type: cell-based, Insect cells; settings: Not Active = under 50% inhibition at 10 µM
Tyrosine-protein kinase Lck, sequence (P06239 whole entry): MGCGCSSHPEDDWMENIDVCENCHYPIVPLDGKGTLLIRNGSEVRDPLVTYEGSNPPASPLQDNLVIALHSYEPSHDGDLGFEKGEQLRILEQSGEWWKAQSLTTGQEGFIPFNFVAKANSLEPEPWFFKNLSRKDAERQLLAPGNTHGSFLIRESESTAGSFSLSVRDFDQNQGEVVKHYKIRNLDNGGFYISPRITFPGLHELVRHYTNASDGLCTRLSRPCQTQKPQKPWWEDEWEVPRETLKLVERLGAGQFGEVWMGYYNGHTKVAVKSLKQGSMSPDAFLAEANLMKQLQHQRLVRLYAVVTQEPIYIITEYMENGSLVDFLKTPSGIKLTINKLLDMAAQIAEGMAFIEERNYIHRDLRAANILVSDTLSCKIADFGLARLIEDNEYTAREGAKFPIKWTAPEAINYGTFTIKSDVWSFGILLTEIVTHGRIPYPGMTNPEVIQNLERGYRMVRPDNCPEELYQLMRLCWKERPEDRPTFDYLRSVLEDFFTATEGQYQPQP

[6] = target: T3, Alpha-1B adrenergic receptor (Rattus norvegicus, UniProt P15823); assay: DRUGMATRIX: Alpha-1B adrenergic receptor radioligand binding (ligand: prazosin); type: cell membranes, Wistar, Liver, Membrane; settings: Not Active = under 50% inhibition at 10 µM; for Ki: read-out: Ki
T3 sequence (P15823 whole entry): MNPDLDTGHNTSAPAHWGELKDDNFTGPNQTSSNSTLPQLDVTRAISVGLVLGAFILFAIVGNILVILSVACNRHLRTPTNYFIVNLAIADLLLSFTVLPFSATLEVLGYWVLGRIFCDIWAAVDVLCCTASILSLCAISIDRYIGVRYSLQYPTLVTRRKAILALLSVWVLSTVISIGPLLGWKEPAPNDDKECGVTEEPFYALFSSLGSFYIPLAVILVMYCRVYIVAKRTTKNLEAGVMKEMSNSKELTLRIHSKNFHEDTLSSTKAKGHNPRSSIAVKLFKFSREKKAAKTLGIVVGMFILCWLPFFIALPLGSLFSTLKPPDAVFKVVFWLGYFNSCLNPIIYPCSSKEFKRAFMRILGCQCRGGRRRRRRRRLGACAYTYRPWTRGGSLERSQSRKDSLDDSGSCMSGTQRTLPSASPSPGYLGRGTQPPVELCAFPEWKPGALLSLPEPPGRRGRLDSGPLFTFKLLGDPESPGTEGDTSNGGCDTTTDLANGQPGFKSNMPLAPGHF

Row | SMILES | IC50 ([1]; cho-k1) | IC50 [2] | IC50 [3] | IC50 [4] | Ki [4] | IC50 ([5]; insect cells) | IC50 [6] | IC50 ([1]; read-out: IC50) | Ki [1] | IC50 ([5]; read-out: IC50) | IC50 ([3]; read-out: IC50) | Ki [3] | IC50 ([6]; read-out: IC50) | Ki [6]
1 | C[C@H](CS)C(=O)N1CCC[C@H]1C(=O)O [CAPTOPRIL] | Not Active | Not Active | Not Active | Not Active | Not Active | Not Active | Not Active |  |  |  |  |  |  | 
2 | Cc1ccc(-c2cc(C(F)(F)F)nn2-c2ccc(S(N)(=O)=O)cc2)cc1 [CELECOXIB] |  | Not Active | Not Active | Not Active | Not Active | Not Active | Not Active | 24600 nM | 13900 nM |  |  |  |  | 
3 | O=C(O)CCCc1ccc(N(CCCl)CCCl)cc1 [CHLORAMBUCIL] | Not Active | Not Active | Not Active | Not Active | Not Active | Not Active | Not Active |  |  |  |  |  |  | 
4 | C[C@H](CCC(=O)O)[C@H]1CC[C@H]2[C@@H]3[C@H](O)C[C@@H]4C[C@H](O)CC[C@]4(C)[C@H]3C[C@H](O)[C@]12C [CHOLIC ACID] | Not Active | Not Active | Not Active | Not Active | Not Active | Not Active | Not Active |  |  |  |  |  |  | 
5 | Cc1cc(C2CCCCC2)n(O)c(=O)c1 [CICLOPIROX] | Not Active | Not Active | Not Active | Not Active | Not Active | Not Active | Not Active |  |  |  |  |  |  | 
6 | CC1=C2C(=CO[C@H](C)[C@H]2C)C(O)=C(C(=O)O)C1=O [CITRININ] | Not Active | Not Active | Not Active | Not Active | Not Active | Not Active | Not Active |  |  |  |  |  |  | 
7 | CC(C)(C)NCC(O)c1cc(Cl)c(N)c(Cl)c1 (stereo not drawn) [CLENBUTEROL] | Not Active | Not Active | Not Active | Not Active | Not Active | Not Active | Not Active |  |  |  |  |  |  | 
8 | CC(C)(Oc1ccc(Cl)cc1)C(=O)O [CLOFIBRIC ACID] | Not Active | Not Active | Not Active | Not Active | Not Active | Not Active | Not Active |  |  |  |  |  |  | 
9 | Cc1cc(C(C#N)c2ccc(Cl)cc2)c(Cl)cc1NC(=O)c1cc(I)cc(I)c1O (stereo not drawn) [CLOSANTEL] |  | Not Active | Not Active | Not Active | Not Active |  | Not Active | 96 nM | 54 nM | 1250 nM |  |  |  | 
10 | Cc1onc(-c2ccccc2Cl)c1C(=O)N[C@@H]1C(=O)N2[C@@H]1SC(C)(C)[C@@H]2C(=O)O [CLOXACILLIN] | Not Active | Not Active | Not Active | Not Active | Not Active | Not Active | Not Active |  |  |  |  |  |  | 
11 | CC1CC(OC(=O)C(O)c2ccccc2)CC(C)(C)C1 (stereo not drawn) [CYCLANDELATE] | Not Active | Not Active | Not Active | Not Active | Not Active | Not Active | Not Active |  |  |  |  |  |  | 
12 | Cc1c2oc3c(C)ccc(C(=O)N[C@@H]4C(=O)N[C@H](C(C)C)C(=O)N5CCC[C@H]5C(=O)N(C)CC(=O)N(C)[C@@H](C(C)C)C(=O)O[C@@H]4C)c3nc-2c(C(=O)N[C@@H]2C(=O)N[C@H](C(C)C)C(=O)N3CCC[C@H]3C(=O)N(C)CC(=O)N(C)[C@@H](C(C)C)C(=O)O[C@@H]2C)c(N)c1=O [DACTINOMYCIN] (I: T[dV]P[Sar][NMeV] / II: T[dV]P[Sar][NMeV]; ester I:1-I:C, II:1-II:C; linker I:N-II:N via Actinocin(1to9)) | Not Active | Not Active | Not Active | Not Active | Not Active | Not Active | Not Active |  |  |  |  |  |  | 
13 | Cc1c(O)c(=O)ccn1C [DEFERIPRONE] | Not Active | Not Active | Not Active | Not Active | Not Active | Not Active | Not Active |  |  |  |  |  |  | 
14 | CNCCCN1c2ccccc2CCc2ccccc21 [DESIPRAMINE] | Not Active | Not Active | Not Active | Not Active | Not Active | Not Active | Not Active |  |  |  |  |  |  | 
15 | O=c1oc2ccccc2c(O)c1Cc1c(O)c2ccccc2oc1=O [DICUMAROL] | Not Active | Not Active | Not Active | Not Active | Not Active | Not Active | Not Active |  |  |  |  |  |  | 
16 | C[C@H]1O[C@@H](O[C@H]2[C@@H](O)C[C@H](O[C@H]3[C@@H](O)C[C@H](O[C@H]4CC[C@@]5(C)[C@H](CC[C@@H]6[C@@H]5C[C@@H](O)[C@]5(C)[C@@H](C7=CC(=O)OC7)CC[C@]65O)C4)O[C@@H]3C)O[C@@H]2C)C[C@H](O)[C@@H]1O [DIGOXIN] | Not Active | Not Active | Not Active | Not Active | Not Active | Not Active | Not Active |  |  |  |  |  |  | 
17 | CC(C)[C@@]1(NC(=O)[C@@H]2C[C@@H]3c4cccc5[nH]cc(c45)C[C@H]3N(C)C2)O[C@@]2(O)[C@@H]3CCCN3C(=O)[C@H](Cc3ccccc3)N2C1=O.CS(=O)(=O)O [DIHYDROERGOCRISTINE MESYLATE] | Not Active | Not Active |  | Not Active | Not Active | Not Active |  |  |  |  | 1.62 nM | 0.656 nM | 2.3 nM | 1.27 nM
18 | CC(=O)O[C@@]12CO[C@@H]1C[C@H](O)[C@@]1(C)C(=O)[C@H](O)C3=C(C)[C@@H](OC(=O)[C@H](O)[C@@H](NC(=O)OC(C)(C)C)c4ccccc4)C[C@@](O)([C@@H](OC(=O)c4ccccc4)[C@H]21)C3(C)C.O.O.O [DOCETAXEL] | Not Active | Not Active | Not Active | Not Active | Not Active | Not Active | Not Active |  |  |  |  |  |  | 
19 | COc1cc2nc(N3CCN(C(=O)C4COc5ccccc5O4)CC3)nc(N)c2cc1OC (stereo not drawn) [DOXAZOSIN] | Not Active | Not Active |  | Not Active | Not Active | Not Active |  |  |  |  | 1.55 nM | 0.628 nM | 0.751 nM | 0.416 nM
20 | C[C@H]1c2cccc(O)c2C(=O)C2=C(O)[C@]3(O)C(=O)C(C(N)=O)=C(O)[C@@H](N(C)C)[C@@H]3[C@@H](O)[C@@H]21.O [DOXYCYCLINE] | Not Active | Not Active | Not Active | Not Active | Not Active | Not Active | Not Active |  |  |  |  |  |  | 
21 | O=C(CCCN1CC=C(n2c(=O)[nH]c3ccccc32)CC1)c1ccc(F)cc1 [DROPERIDOL] | Not Active | Not Active |  | Not Active | Not Active | Not Active |  |  |  |  | 1.65 nM | 0.669 nM | 18 nM | 9.78 nM
22 | CC(C)[C@H]1C(=O)N2CCC[C@H]2[C@]2(O)O[C@](NC(=O)[C@@H]3C=C4c5cccc6[nH]cc(c56)C[C@H]4N(C)C3)(C(C)C)C(=O)N12 [ERGOCORNINE] | Not Active | Not Active |  | Not Active | Not Active | Not Active |  |  |  |  | 11 nM | 4.47 nM | 5.19 nM | 2.87 nM
23 | C[C@]12CC[C@@H]3c4ccc(O)cc4CC[C@H]3[C@@H]1CCC2=O [ESTRONE] | Not Active | Not Active | Not Active | Not Active | Not Active | Not Active | Not Active |  |  |  |  |  |  | 
24 | OC(Cn1cncn1)(Cn1cncn1)c1ccc(F)cc1F [FLUCONAZOLE] | Not Active | Not Active | Not Active | Not Active | Not Active | Not Active | Not Active |  |  |  |  |  |  | 
